{"source": "ChEMBL document CHEMBL5360601", "about": "“Discovery of Potent, Dual-Inhibitors of Diacylglycerol Kinases Alpha and Zeta Guided by Phenotypic Optimization” (ACS Med Chem Lett, 2023)", "key": {"[1]": {"test": "Inhibition of DGK in human whole blood cell assessed as increase in IFNgamma level incubated for 1 hr followed by anti-human CD3/ antiCD28 mAB stimulation and measure after 24 hrs by AlphaLISA assay", "format": "tissue-based"}, "[2]": {"test": "Metabolic stability in human liver microsomes assessed as parent compound remaining", "format": "ADME, Microsome"}, "[3]": {"biological_target": "T1, Diacylglycerol kinase kappa (Homo sapiens, UniProt Q5KSL6)", "T1 sequence (Q5KSL6 whole entry)": "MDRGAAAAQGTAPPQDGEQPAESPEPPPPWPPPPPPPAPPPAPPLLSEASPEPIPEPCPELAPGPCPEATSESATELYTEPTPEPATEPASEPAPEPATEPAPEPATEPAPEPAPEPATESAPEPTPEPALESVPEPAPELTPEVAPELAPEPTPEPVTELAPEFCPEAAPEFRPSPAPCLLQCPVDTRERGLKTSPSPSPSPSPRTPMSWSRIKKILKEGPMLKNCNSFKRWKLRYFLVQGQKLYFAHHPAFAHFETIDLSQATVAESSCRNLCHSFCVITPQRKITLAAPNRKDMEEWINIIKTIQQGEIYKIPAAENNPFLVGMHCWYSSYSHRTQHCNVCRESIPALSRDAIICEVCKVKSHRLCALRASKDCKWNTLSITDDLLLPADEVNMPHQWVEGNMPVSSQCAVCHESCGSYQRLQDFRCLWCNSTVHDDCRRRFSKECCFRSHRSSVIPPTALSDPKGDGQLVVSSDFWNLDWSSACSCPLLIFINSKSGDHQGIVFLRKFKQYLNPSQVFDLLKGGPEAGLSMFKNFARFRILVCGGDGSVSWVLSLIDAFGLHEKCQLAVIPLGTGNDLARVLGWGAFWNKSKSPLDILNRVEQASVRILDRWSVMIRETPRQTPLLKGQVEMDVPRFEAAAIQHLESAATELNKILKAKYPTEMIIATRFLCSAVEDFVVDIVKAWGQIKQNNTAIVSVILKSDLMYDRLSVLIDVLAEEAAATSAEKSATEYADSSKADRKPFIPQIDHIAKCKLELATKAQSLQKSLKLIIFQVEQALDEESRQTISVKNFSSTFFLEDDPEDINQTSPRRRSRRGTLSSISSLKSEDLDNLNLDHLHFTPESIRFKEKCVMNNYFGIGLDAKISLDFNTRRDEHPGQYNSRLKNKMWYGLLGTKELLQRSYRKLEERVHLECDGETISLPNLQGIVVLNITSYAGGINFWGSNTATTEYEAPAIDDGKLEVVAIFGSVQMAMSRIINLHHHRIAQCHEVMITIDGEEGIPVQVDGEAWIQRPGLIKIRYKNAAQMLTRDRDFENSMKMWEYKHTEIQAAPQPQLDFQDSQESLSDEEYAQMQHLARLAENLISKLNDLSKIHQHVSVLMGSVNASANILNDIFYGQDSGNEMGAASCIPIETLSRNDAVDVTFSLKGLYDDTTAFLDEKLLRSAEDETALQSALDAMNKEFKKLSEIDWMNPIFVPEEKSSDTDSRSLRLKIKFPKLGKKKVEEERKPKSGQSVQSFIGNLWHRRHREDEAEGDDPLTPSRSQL", "test": "Inhibition of human DGK kappa using 1, 2-Dilauroyl-sn-glycerol as substrate by ADP-Glo kinase assay"}, "[4]": {"test": "Half life in C57BL6 mouse at 1 mg/kg, iv administered as bolus dose measured upto 72 hrs by LC/MS/MS analysis", "format": "ADME, organism-based", "settings": "in vivo"}, "[5]": {"test": "Clearance in C57BL6 mouse at 1 mg/kg, iv administered as bolus dose measured upto 72 hrs by LC/MS/MS analysis", "format": "ADME, organism-based", "settings": "in vivo"}, "[6]": {"biological_target": "Diacylglycerol kinase alpha (Homo sapiens, UniProt P23743)", "sequence (P23743 whole entry)": "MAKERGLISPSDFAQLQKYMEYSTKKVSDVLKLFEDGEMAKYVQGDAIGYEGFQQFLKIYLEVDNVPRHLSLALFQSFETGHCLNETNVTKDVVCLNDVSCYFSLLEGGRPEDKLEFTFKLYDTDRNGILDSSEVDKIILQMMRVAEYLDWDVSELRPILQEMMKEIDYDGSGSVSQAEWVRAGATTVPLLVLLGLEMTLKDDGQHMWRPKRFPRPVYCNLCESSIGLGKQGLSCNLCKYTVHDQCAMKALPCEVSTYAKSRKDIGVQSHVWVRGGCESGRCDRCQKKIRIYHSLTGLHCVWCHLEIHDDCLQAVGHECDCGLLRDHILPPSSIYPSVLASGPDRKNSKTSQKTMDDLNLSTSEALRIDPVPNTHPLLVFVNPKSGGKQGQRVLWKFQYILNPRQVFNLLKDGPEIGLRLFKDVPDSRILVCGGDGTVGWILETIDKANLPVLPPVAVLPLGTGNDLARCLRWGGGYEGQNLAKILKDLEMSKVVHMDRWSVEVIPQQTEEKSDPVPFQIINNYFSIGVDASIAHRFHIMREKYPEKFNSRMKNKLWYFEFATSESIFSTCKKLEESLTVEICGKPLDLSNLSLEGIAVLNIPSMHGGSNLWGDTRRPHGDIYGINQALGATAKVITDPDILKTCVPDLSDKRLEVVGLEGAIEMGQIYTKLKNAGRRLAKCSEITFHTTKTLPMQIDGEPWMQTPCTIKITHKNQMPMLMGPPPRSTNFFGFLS", "test": "Inhibition of human DGK alpha using 1, 2-Dilauroyl-sn-glycerol as substrate by ADP-Glo assay"}, "[7]": {"test": "Oral bioavailability in C57BL6 mouse at 5 mg/kg administered as bolus dose measured upto 72 hrs by LC/MS/MS analysis", "format": "ADME, organism-based", "settings": "in vivo"}, "[8]": {"test": "AUClast in C57BL6 mouse at 1 mg/kg, iv administered as bolus dose measured upto 72 hrs by LC/MS/MS analysis", "format": "ADME, organism-based", "set-up": "dose 1 mg/kg, time < 72 hrs, route iv", "settings": "in vivo"}, "[9]": {"test": "Metabolic stability in mouse liver microsomes assessed as parent compound remaining", "format": "ADME, Microsome"}, "Mus musculus [10]": {"species_on_record": "Mus musculus", "test": "Immunostimulatory activity in OT-1 mouse model assessed as increase in activated effector T-cells measured after 24 hrs in presence of SIINFEKL antigen by flow cytometry analysis", "format": "functional, organism-based", "settings": "dose 1-10 mg/kg"}, "Raji [11]": {"system": "Raji", "test": "IL2 production in PD-L1 positive human Raji cells measured after 24 hrs by Cell titer glo assay"}, "[12]": {"test": "Inhibition of DGK in mouse T cell assessed as increase in IFNgamma level incubated for 1 hr by AlphaLISA assay", "format": "cell-based"}, "[13]": {"test": "Inhibition of DGK in human whole blood cell assessed as increase in pERK level incubated for 1 hr followed by anti-human CD3 stimulation and measure after 15 mins by AlphaLISA assay", "format": "tissue-based"}, "[14]": {"biological_target": "Diacylglycerol kinase iota (Homo sapiens, UniProt O75912)", "sequence (O75912 whole entry)": "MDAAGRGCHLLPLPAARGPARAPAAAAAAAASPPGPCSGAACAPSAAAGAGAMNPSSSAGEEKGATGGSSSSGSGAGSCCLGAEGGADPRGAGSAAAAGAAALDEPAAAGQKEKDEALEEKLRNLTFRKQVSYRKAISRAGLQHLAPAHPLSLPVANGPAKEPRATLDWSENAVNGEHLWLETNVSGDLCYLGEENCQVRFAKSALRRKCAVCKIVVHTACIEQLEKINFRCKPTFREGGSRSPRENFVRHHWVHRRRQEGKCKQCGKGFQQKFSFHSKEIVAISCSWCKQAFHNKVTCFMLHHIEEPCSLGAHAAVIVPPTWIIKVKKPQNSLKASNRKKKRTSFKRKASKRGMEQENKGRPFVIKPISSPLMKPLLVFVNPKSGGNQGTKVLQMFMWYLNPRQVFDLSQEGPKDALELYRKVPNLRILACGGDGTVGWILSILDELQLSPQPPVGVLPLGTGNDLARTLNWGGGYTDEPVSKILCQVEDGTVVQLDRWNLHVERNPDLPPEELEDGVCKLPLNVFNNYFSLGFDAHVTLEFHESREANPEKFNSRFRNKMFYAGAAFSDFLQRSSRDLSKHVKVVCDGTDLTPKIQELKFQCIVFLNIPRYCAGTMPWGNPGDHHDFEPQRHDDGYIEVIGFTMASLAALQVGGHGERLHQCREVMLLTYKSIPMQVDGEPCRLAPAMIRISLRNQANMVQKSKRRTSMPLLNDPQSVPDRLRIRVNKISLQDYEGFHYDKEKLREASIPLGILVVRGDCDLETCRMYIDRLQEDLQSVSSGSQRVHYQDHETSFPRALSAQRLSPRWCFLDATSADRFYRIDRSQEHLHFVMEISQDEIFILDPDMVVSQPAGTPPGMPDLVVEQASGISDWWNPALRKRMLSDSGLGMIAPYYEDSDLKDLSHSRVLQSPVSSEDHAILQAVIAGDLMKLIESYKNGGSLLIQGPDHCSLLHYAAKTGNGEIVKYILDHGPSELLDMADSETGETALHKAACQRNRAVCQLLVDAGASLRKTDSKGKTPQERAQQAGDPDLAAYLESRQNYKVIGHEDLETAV", "test": "Inhibition of human DGK iota using 1, 2-Dilauroyl-sn-glycerol as substrate by ADP-Glo kinase assay"}, "[15]": {"test": "Induction of proliferation of human CD8-positive T cell measured after 24 hrs by Cell titer glo assay"}, "[16]": {"test": "Cmax in C57BL6 mouse at 5 mg/kg, po administered as bolus dose measured upto 72 hrs by LC/MS/MS analysis", "format": "ADME, organism-based", "set-up": "dose 5 mg/kg, time < 72 hrs, route po", "settings": "in vivo"}, "[17]": {"biological_target": "Diacylglycerol kinase zeta (Homo sapiens, UniProt Q13574)", "sequence (Q13574 whole entry)": "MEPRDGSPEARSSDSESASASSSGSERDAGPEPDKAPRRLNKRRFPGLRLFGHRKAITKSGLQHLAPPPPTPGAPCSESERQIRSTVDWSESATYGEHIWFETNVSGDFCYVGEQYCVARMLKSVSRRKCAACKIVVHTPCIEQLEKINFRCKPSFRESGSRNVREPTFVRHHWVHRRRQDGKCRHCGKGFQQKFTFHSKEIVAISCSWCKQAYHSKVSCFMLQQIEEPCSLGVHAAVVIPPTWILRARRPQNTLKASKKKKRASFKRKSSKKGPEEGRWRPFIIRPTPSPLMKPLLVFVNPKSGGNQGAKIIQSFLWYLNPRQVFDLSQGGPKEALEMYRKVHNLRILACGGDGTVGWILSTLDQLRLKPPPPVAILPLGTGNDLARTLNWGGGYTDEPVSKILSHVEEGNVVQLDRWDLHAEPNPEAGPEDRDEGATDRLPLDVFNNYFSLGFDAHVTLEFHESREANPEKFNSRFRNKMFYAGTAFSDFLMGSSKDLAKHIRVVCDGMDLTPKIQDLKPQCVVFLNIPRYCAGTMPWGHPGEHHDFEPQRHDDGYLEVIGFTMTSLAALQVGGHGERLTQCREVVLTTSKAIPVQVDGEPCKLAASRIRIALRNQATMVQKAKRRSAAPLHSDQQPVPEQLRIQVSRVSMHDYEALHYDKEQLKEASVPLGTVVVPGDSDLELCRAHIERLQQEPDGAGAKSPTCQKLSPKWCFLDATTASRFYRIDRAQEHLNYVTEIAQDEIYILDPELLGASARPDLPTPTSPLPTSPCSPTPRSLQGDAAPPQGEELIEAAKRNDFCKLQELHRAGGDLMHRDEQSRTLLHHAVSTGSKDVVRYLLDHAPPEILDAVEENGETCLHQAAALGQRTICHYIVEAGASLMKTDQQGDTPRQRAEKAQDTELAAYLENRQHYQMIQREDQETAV", "test": "Inhibition of human DGK zeta using 1, 2-Dilauroyl-sn-glycerol as substrate by ADP-Glo kinase assay"}, "Mus musculus [18]": {"system": "Mus musculus", "test": "Immunostimulatory activity in OT-1 mouse model assessed as increase in activated effector T-cells at 10 mg/kg measured after 24 hrs by flow cytometry analysis", "format": "functional, organism-based"}, "[19]": {"test": "AUClast in C57BL6 mouse at 5 mg/kg, po administered as bolus dose measured upto 72 hrs by LC/MS/MS analysis", "format": "ADME, organism-based", "set-up": "dose 5 mg/kg, time < 72 hrs, route po", "settings": "in vivo"}, "[20]": {"biological_target": "Diacylglycerol kinase gamma (Homo sapiens, UniProt P49619)", "sequence (P49619 whole entry)": "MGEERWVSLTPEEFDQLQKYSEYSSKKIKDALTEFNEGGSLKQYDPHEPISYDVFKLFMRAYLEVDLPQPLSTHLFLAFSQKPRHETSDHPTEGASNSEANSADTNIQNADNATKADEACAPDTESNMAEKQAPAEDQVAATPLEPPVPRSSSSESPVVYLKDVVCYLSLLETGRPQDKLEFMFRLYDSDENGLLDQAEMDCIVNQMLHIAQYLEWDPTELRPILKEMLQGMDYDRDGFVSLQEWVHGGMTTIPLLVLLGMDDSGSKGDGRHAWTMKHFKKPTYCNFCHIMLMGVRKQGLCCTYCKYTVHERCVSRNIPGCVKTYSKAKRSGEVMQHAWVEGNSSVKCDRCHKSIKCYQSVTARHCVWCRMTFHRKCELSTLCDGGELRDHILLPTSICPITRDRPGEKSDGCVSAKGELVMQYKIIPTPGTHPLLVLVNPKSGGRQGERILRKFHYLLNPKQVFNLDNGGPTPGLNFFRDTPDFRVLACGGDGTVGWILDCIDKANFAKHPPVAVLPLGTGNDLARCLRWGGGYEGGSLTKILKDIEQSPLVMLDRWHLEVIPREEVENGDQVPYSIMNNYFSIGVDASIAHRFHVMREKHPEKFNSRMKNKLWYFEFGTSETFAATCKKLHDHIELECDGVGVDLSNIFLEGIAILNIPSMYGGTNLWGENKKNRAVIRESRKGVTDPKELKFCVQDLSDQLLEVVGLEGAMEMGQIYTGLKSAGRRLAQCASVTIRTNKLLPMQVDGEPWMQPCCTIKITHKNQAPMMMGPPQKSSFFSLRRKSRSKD", "test": "Inhibition of human DGK gamma using 1, 2-Dilauroyl-sn-glycerol as substrate by ADP-Glo assay"}, "Raji [21]": {"system": "Raji", "test": "IL2 production in PD-L1 negative human Raji cells measured after 24 hrs by Cell titer glo assay"}, "[22]": {"test": "Tmax in C57BL6 mouse at 5 mg/kg, po administered as bolus dose measured upto 72 hrs by LC/MS/MS analysis", "format": "ADME, organism-based", "settings": "in vivo"}, "[23]": {"biological_target": "Diacylglycerol kinase beta (Homo sapiens, UniProt Q9Y6T7)", "test": "Inhibition of human DGK beta using 1, 2-Dilauroyl-sn-glycerol as substrate by ADP-Glo assay"}, "[24]": {"test": "Volume of distribution at steady state in C57BL6 mouse at 1 mg/kg, iv administered as bolus dose measured upto 72 hrs by LC/MS/MS analysis", "format": "ADME, organism-based", "settings": "in vivo, read-out: Vdss"}}, "note": "Active and inactive are the calls of the source. No cut-off for these calls is given here.", "data": [{"smiles": "Cn1c(=O)c([N+](=O)[O-])c(N2CCN(C(c3ccc(F)cc3)c3ccc(F)cc3)CC2)c2nc(C#N)ccc21", "values": [{"measurement": "EC50", "setting": "[1]", "value": 280, "unit": "nM"}, {"measurement": "Stability", "setting": "[2]", "value": 90, "unit": "%"}, {"measurement": "IC50", "setting": "[3]", "value": 4600, "unit": "nM"}, {"measurement": "half-life", "setting": "[4]", "value": 22.5, "unit": "h"}, {"measurement": "clearance", "setting": "[5]", "value": 1.9, "unit": "mL/min/kg"}, {"measurement": "IC50", "setting": "[6]", "value": 5, "unit": "nM"}, {"measurement": "bioavailability", "setting": "[7]", "value": 65, "unit": "%"}, {"measurement": "AUC(0-t) at 72 h", "setting": "[8]", "value": 14.8, "unit": "µM·h"}, {"measurement": "Stability", "setting": "[9]", "value": 99, "unit": "%"}, {"measurement": "Activity", "setting": "Mus musculus [10]", "value": "Dose-Dependent Effect"}, {"measurement": "EC50", "setting": "Raji [11]", "value": 37, "unit": "nM"}, {"measurement": "EC50", "setting": "[12]", "value": 340, "unit": "nM"}, {"measurement": "EC50", "setting": "[13]", "value": 520, "unit": "nM"}, {"measurement": "IC50", "setting": "[14]", "value": 3, "unit": "nM"}, {"measurement": "EC50", "setting": "[15]", "value": 65, "unit": "nM"}, {"measurement": "Cmax", "setting": "[16]", "value": 1080, "unit": "nM"}, {"measurement": "IC50", "setting": "[17]", "value": 2, "unit": "nM"}, {"measurement": "Activity", "setting": "Mus musculus [18]", "value": "inactive"}, {"measurement": "AUC(0-t) at 72 h", "setting": "[19]", "value": 48, "unit": "µM·h"}, {"measurement": "IC50", "setting": "[20]", "value": 680, "unit": "nM"}, {"measurement": "EC50", "setting": "Raji [21]", "value": 37, "unit": "nM"}, {"measurement": "Tmax", "setting": "[22]", "value": 3, "unit": "h"}, {"measurement": "IC50", "setting": "[23]", "value": 1000, "unit": "nM"}, {"measurement": "Vd", "setting": "[24]", "value": 3.9, "unit": "L/kg"}]}]}
